# Laboratory results reported in patent US8952024B2, “Herbicidal pyrimidone derivatives” (E I du Pont de Nemours and Company, priority 2009, dated 2015).
# Experiments:
# Format in all cases: in vivo
# [1] = test system: barnyardgrass (Echinochloa crus-galli); test: Test A pre-/postemergence plant response
# Source text: (§1) Seeds of barnyardgrass (Echinochloa crus-galli), large crabgrass (Digitaria sanguinalis), giant foxtail (Setaria faberii), morningglory (Ipomoea spp.), pigweed (Amaranthus retroflexus), velvetleaf (Abutilon theophrasti), wheat (Triticum aestivum) and corn (Zea mays) were planted into a blend of loam soil and sand and treated preemergence with a directed soil spray using test chemicals formulated in a non-phytotoxic solvent mixture which included a surfactant. At the same time these species were also treated with postemergence applications of test compounds formulated in the same manner.
# (§2) Plants ranged in height from two to ten cm and were in the one- to two-leaf stage for the postemergence treatment. Treated plants and untreated controls were maintained in a greenhouse for approximately ten days, after which time all treated plants were compared to untreated controls and visually evaluated for injury. Plant response ratings, summarized in Table A, are based on a 0 to 100 scale where 0 is no effect and 100 is complete control. A dash (-) response means no test result.
# [2] = test system: corn (Zea mays); test: Test A pre-/postemergence plant response
# Source text: as §1, §2
# [3] = test system: giant foxtail (Setaria faberii); test: Test A pre-/postemergence plant response
# Source text: as §1, §2
# [4] = test system: large crabgrass (Digitaria sanguinalis); test: Test A pre-/postemergence plant response
# Source text: as §1, §2
# [5] = test system: morningglory (Ipomoea spp.); test: Test A pre-/postemergence plant response
# Source text: as §1, §2
# [6] = test system: pigweed (Amaranthus retroflexus); test: Test A pre-/postemergence plant response
# Source text: as §1, §2
# [7] = test system: velvetleaf (Abutilon theophrasti); test: Test A pre-/postemergence plant response
# Source text: as §1, §2
# [8] = test system: wheat (Triticum aestivum); test: Test A pre-/postemergence plant response
# Source text: as §1, §2
# [9] = test system: barnyardgrass (Echinochloa crus-galli); test: Test B flooded paddy test; conditions: for Plant response rating, Flood, Barnyardgrass: 250 g ai/ha, flooded paddy test, visual rating on 0 to 100 scale (0 no effect, 100 complete control) after 13 to 15 days; for Plant response rating, Barnyardgrass: Flood (flooded paddy test), 13 to 15 days; for Barnyardgrass plant response rating: Flood, 31 g ai/ha, scale 0 to 100 (0 no effect, 100 complete control)
# In short: (§3)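 Ratings are visual, 0–100 (100 = complete control), taken versus untreated controls 13 to 15 days after treatment in the greenhouse. Compound went straight into paddy water held 3 cm above soil, applied to 2-leaf-stage plants of four species.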
# [10] = test system: ducksalad (Heteranthera limosa); test: Test B flooded paddy test; conditions: for Plant response rating, Flood, Ducksalad: 250 g ai/ha, flooded paddy test, visual rating on 0 to 100 scale (0 no effect, 100 complete control) after 13 to 15 days; for Plant response rating, Ducksalad: Flood (flooded paddy test), 13 to 15 days; for Ducksalad plant response rating: Flood, 31 g ai/ha, scale 0 to 100 (0 no effect, 100 complete control)
# In short: as §3
# [11] = test system: rice (Oryza sativa); test: Test B flooded paddy test; conditions: for Plant response rating, Flood, Rice: 250 g ai/ha, flooded paddy test, visual rating on 0 to 100 scale (0 no effect, 100 complete control) after 13 to 15 days; for Plant response rating, Rice: Flood (flooded paddy test), 13 to 15 days; for Rice plant response rating: Flood, 31 g ai/ha, scale 0 to 100 (0 no effect, 100 complete control)
# In short: as §3
# [12] = test system: umbrella sedge (Cyperus difformis); test: Test B flooded paddy test; conditions: for Plant response rating, Flood, Sedge, Umbrella: 250 g ai/ha, flooded paddy test, visual rating on 0 to 100 scale (0 no effect, 100 complete control) after 13 to 15 days; for Plant response rating, Sedge, Umbrella: Flood (flooded paddy test), 13 to 15 days; for Sedge, Umbrella plant response rating: Flood, 31 g ai/ha, scale 0 to 100 (0 no effect, 100 complete control)
# In short: as §3
# [13] = Postemergence, 125 g ai/ha, 0 to 100 scale where 0 is no effect and 100 is complete control
# [14] = Postemergence, 500 g ai/ha, visual injury, 0 to 100 scale (0 no effect, 100 complete control), approx. ten days
# [15] = Preemergence, 125 g ai/ha, 0 to 100 scale, 0 = no effect, 100 = complete control
# [16] = Preemergence, 500 g ai/ha, 0 to 100 scale, 0 = no effect, 100 = complete control
# [17] = 62 g ai/ha, scale of 0 to 100 where 0 is no effect and 100 is complete control
# [18] = 125 g ai/ha, scale 0 to 100, 0 is no effect, 100 is complete control
# [19] = Postemergence, 500 g ai/ha, 0 to 100 scale, 0 = no effect, 100 = complete control, approx. ten days
# [20] = Preemergence, 500 g ai/ha, visual injury, 0 to 100 scale (0 no effect, 100 complete control), approx. ten days
smiles,measurement,setting,value
Cc1cccc(-c2ncc(C(=O)C3=C(O)CCCC3=O)c(=O)n2-c2cc(F)ccc2C)c1 [Compound 178],"Plant response rating, Barnyardgrass",[1]; [13],80
same,Barnyardgrass plant response rating,[1]; [14],90
same,"Plant response rating, Barnyardgrass",[1]; [15],0
same,"Plant response rating, Barnyardgrass",[1]; [16],50
same,"Plant response rating, Corn",[2]; [13],0
same,Corn plant response rating,[2]; [14],70
same,"Plant response rating, Corn",[2]; [15],0
same,"Plant response rating, Corn",[2]; [16],0
same,"Plant response rating, Foxtail, Giant",[3]; [13],50
same,"Foxtail, Giant plant response rating",[3]; [14],80
same,"Plant response rating, Foxtail, Giant",[3]; [15],10
same,"Plant response rating, Foxtail, Giant",[3]; [16],50
same,"Plant response rating, Crabgrass, Large",[4]; [13],50
same,"Crabgrass, Large plant response rating",[4]; [14],80
same,"Plant response rating, Crabgrass, Large",[4]; [15],10
same,"Plant response rating, Crabgrass, Large",[4]; [16],70
same,"Plant response rating, Morningglory",[5]; [13],50
same,Morningglory plant response rating,[5]; [14],100
same,"Plant response rating, Morningglory",[5]; [15],0
same,"Plant response rating, Morningglory",[5]; [16],40
same,"Plant response rating, Pigweed",[6]; [13],60
same,Pigweed plant response rating,[6]; [14],80
same,"Plant response rating, Pigweed",[6]; [15],0
same,"Plant response rating, Pigweed",[6]; [16],40
same,"Plant response rating, Velvetleaf",[7]; [13],90
same,Velvetleaf plant response rating,[7]; [14],100
same,"Plant response rating, Velvetleaf",[7]; [15],0
same,"Plant response rating, Velvetleaf",[7]; [16],60
same,"Plant response rating, Wheat",[8]; [13],0
same,Wheat plant response rating,[8]; [14],30
same,"Plant response rating, Wheat",[8]; [15],0
same,"Plant response rating, Wheat",[8]; [16],0
same,"Plant response rating, Flood, Barnyardgrass",[9],80
same,"Plant response rating, Barnyardgrass",[9]; [17],20
same,"Plant response rating, Barnyardgrass",[9]; [18],60
same,Barnyardgrass plant response rating,[9],20
same,"Plant response rating, Flood, Ducksalad",[10],100
same,"Plant response rating, Ducksalad",[10]; [17],75
same,"Plant response rating, Ducksalad",[10]; [18],100
same,Ducksalad plant response rating,[10],75
same,"Plant response rating, Flood, Rice",[11],70
same,"Plant response rating, Rice",[11]; [17],20
same,"Plant response rating, Rice",[11]; [18],70
same,Rice plant response rating,[11],0
same,"Plant response rating, Flood, Sedge, Umbrella",[12],95
same,"Plant response rating, Sedge, Umbrella",[12]; [17],85
same,"Plant response rating, Sedge, Umbrella",[12]; [18],95
same,"Sedge, Umbrella plant response rating",[12],55
COc1ccc(-n2c(-c3cccc(C)c3)ncc(C(=O)C3=C(O)CCCC3=O)c2=O)cc1 [Compound 212],"Plant response rating, Barnyardgrass",[1]; [13],50
same,Barnyardgrass plant response rating,[1]; [14],100
same,"Plant response rating, Barnyardgrass",[1]; [15],10
same,"Plant response rating, Barnyardgrass",[1]; [16],90
same,"Plant response rating, Corn",[2]; [13],0
same,Corn plant response rating,[2]; [14],0
same,"Plant response rating, Corn",[2]; [15],0
same,"Plant response rating, Corn",[2]; [16],0
same,"Plant response rating, Foxtail, Giant",[3]; [13],0
same,"Foxtail, Giant plant response rating",[3]; [14],40
same,"Plant response rating, Foxtail, Giant",[3]; [15],10
same,"Plant response rating, Foxtail, Giant",[3]; [16],50
same,"Plant response rating, Crabgrass, Large",[4]; [13],10
same,"Crabgrass, Large plant response rating",[4]; [14],30
same,"Plant response rating, Crabgrass, Large",[4]; [15],0
same,"Plant response rating, Crabgrass, Large",[4]; [16],40
same,"Plant response rating, Morningglory",[5]; [13],50
same,Morningglory plant response rating,[5]; [14],100
same,"Plant response rating, Morningglory",[5]; [15],0
same,"Plant response rating, Morningglory",[5]; [16],80
same,"Plant response rating, Pigweed",[6]; [13],100
same,Pigweed plant response rating,[6]; [14],100
same,"Plant response rating, Pigweed",[6]; [15],60
same,"Plant response rating, Pigweed",[6]; [16],90
same,"Plant response rating, Velvetleaf",[7]; [13],70
same,Velvetleaf plant response rating,[7]; [14],70
same,"Plant response rating, Velvetleaf",[7]; [15],50
same,"Plant response rating, Velvetleaf",[7]; [16],70
same,"Plant response rating, Wheat",[8]; [13],0
same,Wheat plant response rating,[8]; [14],0
same,"Plant response rating, Wheat",[8]; [15],0
same,"Plant response rating, Wheat",[8]; [16],0
same,"Plant response rating, Flood, Barnyardgrass",[9],50
same,"Plant response rating, Barnyardgrass",[9]; [17],0
same,"Plant response rating, Barnyardgrass",[9]; [18],0
same,Barnyardgrass plant response rating,[9],0
same,"Plant response rating, Flood, Ducksalad",[10],95
same,"Plant response rating, Ducksalad",[10]; [17],85
same,"Plant response rating, Ducksalad",[10]; [18],90
same,Ducksalad plant response rating,[10],85
same,"Plant response rating, Flood, Rice",[11],10
same,"Plant response rating, Rice",[11]; [17],0
same,"Plant response rating, Rice",[11]; [18],0
same,Rice plant response rating,[11],0
same,"Plant response rating, Flood, Sedge, Umbrella",[12],95
same,"Plant response rating, Sedge, Umbrella",[12]; [17],85
same,"Plant response rating, Sedge, Umbrella",[12]; [18],90
same,"Sedge, Umbrella plant response rating",[12],80
O=C1CCCC(O)=C1C(=O)c1cnc(C2CCC2)n(-c2ccccc2)c1=O [Compound 114],"Plant response rating, Barnyardgrass",[1]; [13],70
same,"Plant response rating, Barnyardgrass",[1]; [19],90
same,"Plant response rating, Barnyardgrass",[1]; [15],30
same,"Plant response rating, Barnyardgrass",[1]; [20],90
same,"Plant response rating, Corn",[2]; [13],10
same,"Plant response rating, Corn",[2]; [19],50
same,"Plant response rating, Corn",[2]; [15],0
same,"Plant response rating, Corn",[2]; [20],0
same,"Plant response rating, Foxtail, Giant",[3]; [13],60
same,"Plant response rating, Foxtail, Giant",[3]; [19],80
same,"Plant response rating, Foxtail, Giant",[3]; [15],40
same,"Plant response rating, Foxtail, Giant",[3]; [20],80
same,"Plant response rating, Crabgrass, Large",[4]; [13],80
same,"Plant response rating, Crabgrass, Large",[4]; [19],90
same,"Plant response rating, Crabgrass, Large",[4]; [15],90
same,"Plant response rating, Crabgrass, Large",[4]; [20],100
same,"Plant response rating, Morningglory",[5]; [13],90
same,"Plant response rating, Morningglory",[5]; [19],100
same,"Plant response rating, Morningglory",[5]; [15],0
same,"Plant response rating, Morningglory",[5]; [20],80
same,"Plant response rating, Pigweed",[6]; [13],100
same,"Plant response rating, Pigweed",[6]; [19],100
same,"Plant response rating, Pigweed",[6]; [15],100
same,"Plant response rating, Pigweed",[6]; [20],100
same,"Plant response rating, Velvetleaf",[7]; [13],100
same,"Plant response rating, Velvetleaf",[7]; [19],100
same,"Plant response rating, Velvetleaf",[7]; [15],70
same,"Plant response rating, Velvetleaf",[7]; [20],100
same,"Plant response rating, Wheat",[8]; [13],0
same,"Plant response rating, Wheat",[8]; [19],0
same,"Plant response rating, Wheat",[8]; [15],0
same,"Plant response rating, Wheat",[8]; [20],20
same,"Plant response rating, Flood, Barnyardgrass",[9],40
same,"Plant response rating, Barnyardgrass",[9]; [17],20
same,"Plant response rating, Flood, Ducksalad",[10],75
same,"Plant response rating, Ducksalad",[10]; [17],65
same,"Plant response rating, Flood, Rice",[11],20
same,"Plant response rating, Rice",[11]; [17],0
same,"Plant response rating, Flood, Sedge, Umbrella",[12],40
same,"Plant response rating, Sedge, Umbrella",[12]; [17],30
